Values of other authors, collected in patent US20040024042A1, “COX2 inhibition in the prevention and treatment of autosomal dominant polycystic kidney disease” (Vanderbilt University, priority 2002, published 2004).

Key:
[1] = system: PKD in animal models
[2] = system: albumin and alpha1-acid glycoprotein; settings: within the clinical dose range
[3] = target: Cytochrome P450 2C9 (Homo sapiens, UniProt P11712)
[4] = system: Cytochrome P450 3A4
[5] = system: mouse models of FAP; settings: mice treated with COX2 inhibitor
[6] = not given; remark: listed apart in the source
[7] = system: warfarin metabolism; settings: in vivo
[8] = not given; remark: listed apart in the source

Chain of Cytochrome P450 2C9 (P11712 whole entry): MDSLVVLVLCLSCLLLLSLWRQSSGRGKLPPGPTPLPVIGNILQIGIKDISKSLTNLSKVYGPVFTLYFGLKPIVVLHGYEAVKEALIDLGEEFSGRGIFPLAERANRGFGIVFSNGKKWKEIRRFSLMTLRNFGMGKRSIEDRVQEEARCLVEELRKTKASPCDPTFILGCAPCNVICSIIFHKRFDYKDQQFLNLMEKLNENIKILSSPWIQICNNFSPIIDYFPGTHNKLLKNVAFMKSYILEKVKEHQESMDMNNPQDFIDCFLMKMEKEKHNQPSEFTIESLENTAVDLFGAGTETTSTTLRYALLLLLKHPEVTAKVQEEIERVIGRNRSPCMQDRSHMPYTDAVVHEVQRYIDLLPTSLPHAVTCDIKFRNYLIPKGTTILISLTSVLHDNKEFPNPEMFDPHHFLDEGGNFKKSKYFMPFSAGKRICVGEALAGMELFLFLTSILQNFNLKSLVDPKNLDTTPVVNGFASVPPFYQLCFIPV

For CC(=O)O[C@H]1C(=O)[C@@]2(C)[C@H]([C@H](OC(=O)c3ccccc3)[C@]3(O)C[C@H](OC(=O)[C@H](O)[C@@H](NC(=O)c4ccccc4)c4ccccc4)C(C)=C1C3(C)C)[C@]1(OC(C)=O)CO[C@@H]1C[C@@H]2O [Taxol], the “Progression of PKD” value [1] is listed as “slow progression of PKD”.

In the case of Cc1ccc(-c2cc(C(F)(F)F)nn2-c2ccc(S(N)(=O)=O)cc2)cc1 [celecoxib, 4-[5-(4-methyphenyl)-3-(trifluoromethyl)-1H-pyrazol-1-yl] benzenesulfonamide], the “Time of peak plasma levels” value (after an oral dose) is listed as “roughly 3 hours”, the “Effect of antacids on plasma concentrations” value (aluminum or magnesium containing antacids) is listed as “decrease in plasma concentrations” and the Effective half-life (fasted conditions) is listed as “roughly 11 hours”. The “Dose excreted in feces” value (following a single dose) was 57%, the “Dose excreted in the urine” value (following a single dose) was 27% and the “Delay of plasma levels with food” value (taken with a high fat meal) was 1 to 2 h. The “Increase in total absorption with food” value (taken with a high fat meal) was 10-20%, the Protein binding [2] was “highly protein bound” and the Major metabolizing enzyme [3] was “Cytochrome P450 2C9”.

In the case of CS(=O)(=O)c1ccc(C2=C(c3ccccc3)C(=O)OC2)cc1 [rofecoxib], the “Induction of the 3A4 isoform” value ([4]; in vivo) is given as “mild inducer”, the “Substrate of the P450 system” value ([4]; in vivo) is given as “not a substrate for the P450 system” and the “Reduction of the AUC of midazolam” value ([4]; rofecoxib 25 mg daily) is given as 30%. The Polyp formation [5] was “marked reduction in polyp formation”, the “Time to steady state level” value ([6]; 25 mg qday) was 4 days and the “Increase of AUC in moderate hepatic insufficiency” value ([6]; Child-Pugh score 7-9) was 69%. The “Peak plasma concentration (Cmax)” value ([6]; after a 25-mg dose) was 200 ng/mL, the “Reduction of Cmax by antacids” value ([6]; antacids) was 20% and the “Reduction of extent of absorption by antacids” value ([6]; antacids) was 10-15%. For the same compound, the “Increase in bioavailability in elderly patients” value ([6]; elderly patients (>65 yrs) compared to young subjects) was 34%, the Cd ([6]; in vivo) was 90 L and the “Dose excreted unchanged in the urine” value ([6]; in vivo) was less than 1%. For the same compound, the Oral bioavailability ([6]; in vivo, po) was greater than 90%, the Accumulation factor ([6]; repeated administration) was 1.67 and the Cssmax ([6]; steady state, 25 mg qday) was 320 ng/mL. The “Increase of INR with warfarin” value [7] was “about 10%”, the “Crossing of the placenta and the blood-brain barrier” value ([8]; animal studies) was “able to cross the placenta and the blood-brain barrier” and the Excretion in milk ([8]; lactating animals) was “excreted in the milk of lactating animals”.
